Laboratory results taken from the supplement of paper PMC10307832.

Columns and labels:
Assay in all cases: relative viability (nuclei count vs DMSO), 5 days (fraction); higher = more cells survive
AT-7519 + Pemetrexed = compound: O=C(NC1CCNCC1)c1n[nH]cc1NC(=O)c1c(Cl)cccc1Cl [AT-7519] + Nc1nc2[nH]cc(CCc3ccc(C(=O)N[C@@H](CCC(=O)O)C(=O)O)cc3)c2c(=O)[nH]1 [Pemetrexed] (partner 0.2 µM)
In short: (§1)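 Each reported value is a median over duplicate plates. It expresses relative viability: treated-well nuclei count divided by vehicle-well nuclei count. Lung cancer cell lines in 1536-well plates were dosed by pin tool a day after seeding, alone with one drug or with a fixed anchor-drug dose plus five library-drug doses (not always all listed) in √10 steps, and nuclei were counted after 5 days.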

[1] = compound: C1=CC2=C(C=C(C(=C2N=C1)O)N=NC3=CC4=C(C=C3)C=C(C=C4)S(=O)(=O)O)S(=O)(=O)O + COc1cccc2cc(-c3nc([C@H]4CC[C@H](C(=O)O)CC4)n4ncnc(N)c34)[nH]c12 [OSI-027] (partner 0.5 µM)
In short: as §1

AT-7519 = compound: O=C(NC1CCNCC1)c1n[nH]cc1NC(=O)c1c(Cl)cccc1Cl [AT-7519]
In short: (§2)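 A plate was accepted only when its control CV was below 25% and the cells had doubled at least once. Viability is defined from nuclear counts as treated wells divided by vehicle wells, with the median taken across plates. That median covers lung cancer cell lines grown in 1536-well plates, dosed by pinning at five √10-spaced library-drug concentrations, and counted in MetaXpress from 4× Hoechst images after 5 days.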

[2] = compound: C1=CC2=C(C=C(C(=C2N=C1)O)N=NC3=CC4=C(C=C3)C=C(C=C4)S(=O)(=O)O)S(=O)(=O)O
In short: as §2

| Cell Line | relative viability (AT-7519 + Pemetrexed; first compound 0.01 µM) | relative viability (AT-7519 + Pemetrexed; first compound 0.03162 µM) | relative viability (AT-7519 + Pemetrexed; first compound 0.3162 µM) | relative viability (AT-7519 + Pemetrexed; first compound 1 µM) | relative viability ([1]; first compound 0.08 µM) | relative viability ([1]; first compound 0.253 µM) | relative viability ([1]; first compound 0.8 µM) | relative viability ([1]; first compound 2.53 µM) | relative viability ([1]; first compound 8 µM) | relative viability (AT-7519; 0.01 µM) | relative viability (AT-7519; 0.03162 µM) | relative viability (AT-7519; 0.3162 µM) | relative viability (AT-7519; 1 µM) | relative viability ([2]; 0.08 µM) | relative viability ([2]; 0.253 µM) | relative viability ([2]; 0.8 µM) | relative viability ([2]; 2.53 µM) | relative viability ([2]; 8 µM) |
| --- | --- | --- | --- | --- | --- | --- | --- | --- | --- | --- | --- | --- | --- | --- | --- | --- | --- | --- |
| SK-LU-1 | 0.99 | 1 | 0.998 | 0.439 | 0.424 | 0.366 | 0.38 | 0.338 | 0.354 | 1.08 | 0.959 | 0.924 | 0.73 | 1.17 | 1.02 | 1.02 | 0.979 | 0.988 |
| SK-MES-1 | 1.12 | 1.04 | 0.982 | 0.798 | 0.69 | 0.633 | 0.588 | 0.681 | 0.661 | 1.02 | 0.968 | 1 | 0.771 | 1.03 | 0.967 | 0.968 | 0.987 | 1.02 |
| SW 900 | 0.453 | 0.425 | 0.452 | 0.478 | 0.55 | 0.554 | 0.608 | 0.517 | 0.424 | 0.771 | 0.866 | 0.786 | 0.657 | 1.07 | 0.971 | 0.802 | 0.918 | 0.841 |
| SW 1573 | 0.745 | 0.833 | 0.401 | 0.126 | 0.734 | 0.622 | 0.61 | 0.463 | 0.401 | 0.988 | 0.84 | 0.753 | 0.312 | 1.11 | 1.03 | 0.944 | 1.01 | 0.815 |
